Results as given in patent US7594984B2, “Apparatus and method for measuring activity signals of biological samples” (Panasonic Corporation, priority 2002, dated 2009).

Columns and labels:
[1] = tested on: nerve cells prepared from lymnaea; test: Extracellular recording before and after Carbachol administration; normal distribution of standard deviations (mean value, half-width); assay type: cell-based; settings: 50-μM Carbachol
Description: The normal distribution approximation unit 103 classifies a plurality of standard deviations obtained in the group SD calculation unit 102 into a plurality of classes set at predetermined widths. The classes are plotted on the X axis and the number of standard deviations classified into each class is plotted on the Y axis, to obtain a graph. The graph obtained is approximated to a normal distribution. Methods for approximating the graph to a normal distribution include, for example, various curve fitting analyses, such as exponential decrease, exponential increase, Gaussian, Lorentzian, Sigma, Multipeak and non-linear methods. The mean value/half-width calculation unit 106 calculates the mean value and half-width (the half-peak height width) of the normal distribution obtained.
The apparatus of the present embodiment thus configured was used to measure how the chemical substance Carbachol acts on nerve cells prepared from lymnaea. More specifically, the normal distribution approximation unit 103 produced a frequency distribution of the standard deviations on the basis of signals that were detected by the measurement unit 101 before and after Carbachol was administered to lymnaea nerve cells at 50-μM concentration. […]

[2] = tested on: nerve cells prepared from lymnaea; test: Extracellular recording of nerve cell electrical signals at a series of Carbachol concentrations; mean value of standard deviations; assay type: cell-based; settings: concentrations 0-100, SD sampled every 100 ms from 10-second data, FIG. 10
Description: FIG. 9 is a block diagram schematically illustrating a configuration of the apparatus for measuring the activity signals of biological samples according to Embodiment 3. The apparatus employs the apparatus of Embodiment 1 as a measurement unit (a signal source) 101, and has a function for processing electrical signals detected by the measurement unit 101. As shown in FIG. 9(A), the apparatus is provided with a group SD (standard deviation) calculation unit 102, a mean value calculation unit 105, an activation evaluation unit 120 and a data display unit 110. According to the group SD calculation unit 102, the standard deviation of one group consisting of a predetermined number of samples is calculated on the basis of time-series data detected by the measurement unit 101. […] According to the mean value calculation unit 105, the mean value of the obtained plurality of standard deviations is calculated. […] Therefore, according to the activation calculation unit 120, activation can be calculated based on the input information and can be classified by comparison with pre-stored information. […] According to the apparatus, noise can be removed from digital signals (predetermined time-series data) captured at a fixed sampling rate, and then significant signals showing, for example, the opening and closing of ion channels can be extracted, measured and classified. […]

SMILES: C[N+](C)(C)CCOC(N)=O [Carbachol]
- effect on ion channels of the nerve cells ([1]; lymnaea nerve cells): activates the ion channels
- mean value of the normal distribution of standard deviations after administration ([1]; SD every 5 ms from 10-second signals, before administration 0.478, FIG. 12): 0.703
- Carbachol concentration at which the mean value of the standard deviations reaches its peak [2]: 10 µM
